According to patent US11667602B2, “Compounds and their use” (AstraZeneca AB, priority 2020, dated 2023):
In brackets after ≈: the same amount, converted by molar mass.

Columns and labels:
[1] = Human Plasma Protein Binding (Test B); assay type: in vitro ADME; details: fraction unbound (fu)
Summary of the method: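 Human plasma protein binding run per the published Wernevik et al. (2020) integrated DMPK panel protocol. Values are fraction unbound (fu, % free); repeat runs averaged arithmetically.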

[2] = Human Liver Microsomal Stability (Test C); assay type: in vitro ADME; details: human, liver microsomes
Summary of the method: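 Human liver microsome incubation per the Wernevik et al. integrated DMPK panel protocol. Intrinsic clearance reported as CLint in μl/min/mg protein, averaged arithmetically over repeat runs.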

[3] = Rat Hepatocyte Stability (Test E); assay type: in vitro ADME; details: rat, hepatocytes, geometric mean if run multiple times
Summary of the method: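 Run per the published AstraZeneca-type rat hepatocyte stability protocol (Wernevik et al. panel). Values are mean intrinsic clearance, Clint in μl/min/10^6 cells; geometric mean used for repeated runs.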

Solubility (Test F) = assay type: physicochemical; details: arithmetic mean if run multiple times
Experimental: The assay was conducted according to the Solubility Assay described in pages 164-167 of Wernevik, J. et al., “A Fully Integrated Assay Panel for Early Drug Metabolism and Pharmacokinetics Profiling”, Assay and Drug Development Technologies, 2020, 18(4), 157-179. Data are reported in Table 36 as solubility ([…]. Where the assay was run multiple times for the same compound, the arithmetic mean is reported.

human RXFP1 = biological target: T1, human RXFP1 (Homo sapiens, UniProt Q9HBX9); experiment: RXFP1 Hu cAMP (Test A); assay type: cell-based; design: expressed in transfected cells; host or cells: Jump-In T-REx CHO-K1 cells (ThermoFisher), induced with 10 ng/ml doxycycline for 24 h; details: RXFP1 Hu cAMP; for EC50: read-out: Test A EC50
T1 sequence (Q9HBX9 1-757): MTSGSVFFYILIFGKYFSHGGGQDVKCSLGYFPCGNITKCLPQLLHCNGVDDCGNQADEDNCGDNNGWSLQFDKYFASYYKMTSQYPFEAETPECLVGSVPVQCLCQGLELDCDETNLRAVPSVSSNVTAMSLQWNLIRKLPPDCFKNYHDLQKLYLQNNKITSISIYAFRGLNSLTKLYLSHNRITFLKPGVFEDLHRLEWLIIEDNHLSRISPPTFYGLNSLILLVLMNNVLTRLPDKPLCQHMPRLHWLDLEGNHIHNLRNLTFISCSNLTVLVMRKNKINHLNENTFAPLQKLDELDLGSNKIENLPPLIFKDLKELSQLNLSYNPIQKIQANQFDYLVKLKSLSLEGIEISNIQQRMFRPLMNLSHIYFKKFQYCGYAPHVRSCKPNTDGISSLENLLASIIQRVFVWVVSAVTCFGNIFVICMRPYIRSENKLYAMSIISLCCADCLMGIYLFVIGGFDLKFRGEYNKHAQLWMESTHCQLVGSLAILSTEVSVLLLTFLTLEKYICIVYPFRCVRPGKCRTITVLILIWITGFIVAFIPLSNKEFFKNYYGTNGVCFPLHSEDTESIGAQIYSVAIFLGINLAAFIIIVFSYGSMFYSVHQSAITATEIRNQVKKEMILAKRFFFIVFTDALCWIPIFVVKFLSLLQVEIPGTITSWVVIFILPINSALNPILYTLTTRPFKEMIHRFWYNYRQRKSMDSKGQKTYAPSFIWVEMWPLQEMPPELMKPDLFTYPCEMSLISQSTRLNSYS
Summary of the method: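 CHO-K1 (Jump-In T-REx), RXFP1 induced w/ 10 ng/ml doxycycline 24 h, cryopreserved. 0.5 mM IBMX final. cAMP by HTRF, 2 h RT, std curve.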

Test B Human Plasma Protein Binding (% free) [1] [% free] | microsomal CLint [2] [µL/min/mg] | hepatocyte CLint [3] [µL/min/1e6 cells] | solubility (Solubility (Test F)) [µM] | Test A Sinf (human RXFP1) [%] | EC50 (human RXFP1) [nM] | SMILES
0.049 | < 3 | 10 | 67 (≈ 42.1 µg/mL) | 50 | > 3600 | COc1cc(F)c(-c2ccc(C(=O)O)cc2)cc1C(=O)N[C@@H]1[C@H]2CC[C@H](C2)[C@@H]1C(=O)Nc1ccc(S(F)(F)(F)(F)F)cc1 [Example 210, 2′-Fluoro-4′-methoxy-5′-(((1S,2R,3S,4R)-3-((4-(pentafluoro-λ^6-sulfaneyl)phenyl)carbamoyl)bicyclo[2.2.1]heptan-2-yl)carbamoyl)-[1,1′-biphenyl]-4-carboxylic acid]
31 | < 3 | 18 | 860 (≈ 476 µg/mL) | 100 | 680 | COc1cc(C#N)c(O[C@H]2CC[C@@](C)(C(=O)O)CC2)cc1C(=O)N[C@@H]1[C@H]2CC[C@H](C2)[C@@H]1C(=O)NCC1(OC)CC1 [Example 111]
<1.2 | 18 | 22 | 13 (≈ 8.81 µg/mL) | 106 | 370 | COc1cc(F)c(-c2ccc(C[C@@H](N)C(=O)O)cc2)cc1C(=O)N[C@@H]1[C@H]2CC[C@H](C2)[C@@H]1C(=O)Nc1cccc(S(=O)(=O)C(F)(F)F)c1 [Example 291, (R)-2-Amino-3-(2′-fluoro-4′-methoxy-5′-(((1S,2R,3S,4R)-3-((3-((trifluoromethyl)sulfonyl)phenyl)carbamoyl)bicyclo[2.2.1]heptan-2-yl)carbamoyl)-[1,1′-biphenyl]-4-yl)propanoic acid]
1.6 | 130 | 25 | 250 (≈ 145 µg/mL) | 111 | 17 | CCCC1(CNC(=O)[C@H]2[C@@H]3CC[C@@H](C3)[C@H]2NC(=O)c2cc(O[C@H]3CC[C@@](C)(C(=O)O)CC3)c(C#N)cc2OC)CCC1 [Example 83]
26 | < 3 | 24 | 890 (≈ 487 µg/mL) | 97 | 440 | COc1cc(C#N)c(O[C@H]2CC[C@@](C)(C(=O)O)CC2)cc1C(=O)N[C@@H]1[C@H]2CC[C@H](C2)[C@@H]1C(=O)NCC(C)(F)F [Example 96]
0.64 | 36 | 38 | 290 (≈ 176 µg/mL) | 103 | 270 | COc1cc(F)c(O[C@H]2CC[C@@H](C(=O)O)CC2)cc1C(=O)N[C@@H]1[C@H]2CC[C@H](C2)[C@@H]1C(=O)Nc1cc(C)cc(C(F)(F)F)c1 [Example 188]
18 | 4.4 | 21 | 880 (≈ 489 µg/mL) | 123 | 480 | COc1cc(C#N)c(O[C@H]2CC[C@@](C)(C(=O)O)CC2)cc1C(=O)N[C@@H]1[C@H]2CC[C@H](C2)[C@@H]1C(=O)NCC1(CF)CC1 [Example 95]
15 | < 3 | 110 | > 1000 | 88 | > 5000 | COc1cc(F)c(O[C@H]2CC[C@@H](C(=O)O)CC2)cc1C(=O)N[C@@H]1[C@H]2CC[C@H](C2)[C@@H]1C(=O)NC1CC(F)(F)C1 [Example 33, (1S,4s)-4-(5-(((1S,2R,3S,4R)-3-((3,3-Difluorocyclobutyl)carbamoyl)bicyclo[2.2.1]heptan-2-yl)carbamoyl)-2-fluoro-4-methoxyphenoxy)cyclohexane-1-carboxylic acid]
1.5 | 34 | 23 | 83 (≈ 48.2 µg/mL) | 101 | 130 | COc1cc(F)c(O[C@H]2CC[C@@H](C(=O)O)CC2)cc1C(=O)N[C@@H]1[C@H]2CC[C@H](C2)[C@@H]1C(=O)Nc1cccc(C(C)(C)C)c1 [Example 189]
2.1 | 37 | 29 | > 1000 | 106 | 93 | COc1ccc(O[C@H]2CC[C@@H](C(=O)O)CC2)cc1C(=O)N[C@@H]1[C@H]2CC[C@H](C2)[C@@H]1C(=O)Nc1cccc(S(=O)(=O)C(F)(F)F)c1 [Example 466, (1S,4s)-4-(4-Methoxy-3-(((1S,2R,3S,4R)-3-((3-((trifluoromethyl)sulfonyl)phenyl)carbamoyl)bicyclo[2.2.1]heptan-2-yl)carbamoyl)phenoxy)cyclohexane-1-carboxylic acid]
0.050 | 8.1 | 12 | < 7 | 99 | 250 | COc1cc(F)c(-c2ccc(OC(C)(C)C(=O)O)cc2)cc1C(=O)N[C@@H]1[C@H]2CC[C@H](C2)[C@@H]1C(=O)Nc1cccc(S(=O)(=O)C(F)(F)F)c1 [Example 256, 2-((2′-fluoro-4′-methoxy-5′-(((1S,2R,3S,4R)-3-((3-((trifluoromethyl)sulfonyl)phenyl)carbamoyl)bicyclo[2.2.1]heptan-2-yl)carbamoyl)-[1,1′-biphenyl]-4-yl)oxy)-2-methylpropanoic acid]
26 | < 3 | 10 | 920 (≈ 522 µg/mL) | – | > 5000 | COc1cc(C#N)c(O[C@H]2CC[C@@](C)(C(=O)O)CC2)cc1C(=O)N[C@@H]1[C@H]2CC[C@H](C2)[C@@H]1C(=O)NCC1(O)CCCC1 [Example 74]
1.7 | > 300 | 29 | 170 (≈ 101 µg/mL) | 112 | 9.7 | COc1cc(C#N)c(O[C@H]2CC[C@@](C)(C(=O)O)CC2)cc1C(=O)N[C@@H]1[C@H]2CC[C@H](C2)[C@@H]1C(=O)NCC1(CC(C)C)CCC1 [Example 106]
0.35 | 16 | 9.5 | > 1000 | 96 | 59 | COc1cc(F)c(-c2ccc(OCC(=O)O)cc2)cc1C(=O)N[C@@H]1[C@H]2CC[C@H](C2)[C@@H]1C(=O)Nc1cccc(S(=O)(=O)C(F)(F)F)c1 [Example 257, 2-((2′-Fluoro-4′-methoxy-5′-(((1S,2R,3S,4R)-3-((3-((trifluoromethyl)sulfonyl)phenyl)carbamoyl)bicyclo[2.2.1]heptan-2-yl)carbamoyl)-[1,1′-biphenyl]-4-yl)oxy)acetic acid]
<0.21 | 20 | 11 | 150 (≈ 100 µg/mL) | 110 | 48 | COc1cc(F)c(O[C@H]2CC[C@@H](C(=O)O)CC2)cc1C(=O)N[C@@H]1[C@H]2CC[C@H](C2)[C@@H]1C(=O)Nc1cc(F)cc(S(F)(F)(F)(F)F)c1 [Example 17, (1S,4s)-4-(2-Fluoro-5-(((1S,2R,3S,4R)-3-((3-fluoro-5-(pentafluoro-6-sulfaneyl)phenyl)carbamoyl)bicyclo[2.2.1]heptan-2-yl)carbamoyl)-4-methoxyphenoxy)cyclohexane-1-carboxylic acid]
28 | 7.5 | 31 | 980 (≈ 556 µg/mL) | – | > 5000 | COCC1(CNC(=O)[C@H]2[C@@H]3CC[C@@H](C3)[C@H]2NC(=O)c2cc(O[C@H]3CC[C@@](C)(C(=O)O)CC3)c(C#N)cc2OC)CC1 [Example 79]
